Test systems include HCT-15; CCRF-CEM; HCT-116; NCI/ADR-RES; RXF 393; Malme-3M; NCI-H460; SF-295; HOP-62; MOLT-4; CAKI-1; OVCAR-4; TK-10; BT-549; A549; SF-539; SNB-75; OVCAR-3; RPMI-8226; EKVX.
What all share (test): NCI tumour cell line growth inhibition, 48 h

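All cell lines were grown in 96-well plates and treated with compound for 48 hours. At the GI50, growth is halved.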 Calls of active or inactive are those of the source. No stated cut-off is given here; in the data, active = GI50 up to about 1.1 µM and inactive = higher.

As to `O=C1NC(=O)C2(CCCCCC2)N1`, the GI50 in the assay on HCT-15 is over 100 µM; in the assay with CCRF-CEM it was > 100 µM (inactive); in the assay on HCT-116, > 100 µM (inactive); in the assay with NCI/ADR-RES, > 100 µM (inactive); in the assay on RXF 393 it was > 100 µM (inactive); with Malme-3M, > 100 µM (inactive). The GI50 in the assay on NCI-H460, in the assay with SF-295, in the assay on HOP-62, in the assay with MOLT-4, with CAKI-1 and with OVCAR-4 was > 100 µM (inactive) in each case. The GI50 with TK-10, in the assay with BT-549, with A549, in the assay with SF-539, in the assay with SNB-75 and in the assay with OVCAR-3 was > 100 µM (inactive) each time. Also, the GI50 in the assay with RPMI-8226 and in the assay with EKVX was > 100 µM (inactive) each time.

With `COc1cc(C2c3cc4c(cc3OC(Nc3ccc(C(=O)O)cc3)C2C)OCO4)cc(OC)c1OC` (stereo not given), the GI50 is 0.294 µM in the assay on HCT-15; 0.282 µM (active) in the assay on CCRF-CEM; 0.31 µM (active) in the assay with HCT-116; 0.29 µM (active) with NCI/ADR-RES; 0.115 µM (active) with RXF 393; 0.0655 µM (active) in the assay on Malme-3M. For the same molecule, the GI50 with NCI-H460 is 0.326 µM (active); in the assay with SF-295, 0.214 µM (active); in the assay on HOP-62, 0.446 µM (active); with MOLT-4, 0.434 µM (active); in the assay with CAKI-1, 0.204 µM (active); in the assay on OVCAR-4, 0.458 µM (active). For the same molecule, the GI50 in the assay on TK-10 was 25.4 µM (inactive); in the assay with BT-549, 0.467 µM (active); with A549 it was 0.373 µM (active); in the assay with SF-539 it was 0.218 µM (active); in the assay on SNB-75, 0.295 µM (active); in the assay with OVCAR-3, 0.285 µM (active). Also, the GI50 in the assay on RPMI-8226 was 0.337 µM (active); in the assay with EKVX, 0.745 µM (active).

For the molecule `CCCCCCCCCCCCCCCC(=O)OC1C(O)C(O)C(O)C(O)C12CO2` (stereo not given), the GI50 with HCT-15 was 24.5 µM; with CCRF-CEM, 7.94 µM (inactive); in the assay on HCT-116 it was 24.3 µM (inactive); in the assay with NCI/ADR-RES, 46 µM (inactive); with RXF 393, 69.2 µM (inactive); in the assay with Malme-3M it was > 100 µM (inactive). Further, the GI50 in the assay with NCI-H460 is > 100 µM (inactive); in the assay on SF-295 it was 70.1 µM (inactive); with HOP-62 it was > 100 µM (inactive); in the assay on MOLT-4, 12.2 µM (inactive); in the assay with CAKI-1 it was 13.6 µM (inactive); in the assay with OVCAR-4 it was 55.1 µM (inactive). Further, the GI50 in the assay on TK-10 was > 100 µM (inactive); in the assay with BT-549 it was 24.2 µM (inactive); with A549, > 100 µM (inactive); with SF-539, 25.8 µM (inactive); in the assay with SNB-75 it was 20.7 µM (inactive); in the assay with OVCAR-3, 24.6 µM (inactive). In addition, the results for the GI50 with RPMI-8226 and in the assay with EKVX were 26.4 µM (inactive) and 22.7 µM (inactive), respectively.

As for `CCOC(=O)CCC(C(=O)OCC)n1nnc2cc(Nc3c(C)[n+]([O-])c4ccc(Cl)cc4[n+]3[O-])ccc21` (stereo not given), the GI50 with HCT-15 was 53.7 µM; in the assay on CCRF-CEM, 39.4 µM (inactive); in the assay with HCT-116 it was 69.5 µM (inactive); in the assay with NCI/ADR-RES it was 47.1 µM (inactive); in the assay with RXF 393 it was 57.9 µM (inactive); with Malme-3M it was > 100 µM (inactive). Also, the GI50 in the assay with NCI-H460 was 39.1 µM (inactive); in the assay on SF-295, 78 µM (inactive); with HOP-62, > 100 µM (inactive); in the assay on MOLT-4, 44.2 µM (inactive); with CAKI-1, 57 µM (inactive); in the assay with OVCAR-4, 79.8 µM (inactive). Further, the GI50 was > 100 µM (inactive) in the assay with TK-10; > 100 µM (inactive) in the assay on BT-549; > 100 µM (inactive) in the assay with A549; 82.4 µM (inactive) in the assay with SF-539; 93.1 µM (inactive) in the assay on SNB-75; 40.4 µM (inactive) in the assay with OVCAR-3. In addition, the GI50 was 47.2 µM (inactive) with RPMI-8226 and 23.2 µM (inactive) in the assay with EKVX.

`CN/N=C(/C=C/c1ccccc1)C(C)C`: the GI50 with HCT-15 is over 100 µM; in the assay on CCRF-CEM it was > 100 µM (inactive); with HCT-116, > 100 µM (inactive); with NCI/ADR-RES, > 100 µM (inactive); in the assay on RXF 393, > 100 µM (inactive); in the assay with Malme-3M, > 100 µM (inactive). The GI50 in the assay on NCI-H460 is > 10 µM (inactive); with SF-295, > 100 µM (inactive); with HOP-62 it was > 100 µM (inactive); in the assay on MOLT-4, > 100 µM (inactive); in the assay with CAKI-1 it was > 100 µM (inactive); with OVCAR-4 it was > 100 µM (inactive). Moreover, the GI50 in the assay on TK-10, with BT-549, in the assay with A549, in the assay with SF-539, with SNB-75 and with OVCAR-3 was > 100 µM (inactive) each time. Besides, the GI50 in the assay on RPMI-8226 and with EKVX was > 100 µM (inactive) in each case.

Regarding `NC1=NCC(CN2CCCC2)O1` (stereo not given), the GI50 in the assay with HCT-15 is over 100 µM; in the assay with CCRF-CEM, > 100 µM (inactive); in the assay with HCT-116, > 100 µM (inactive); in the assay on NCI/ADR-RES it was > 100 µM (inactive); in the assay on RXF 393 it was > 100 µM (inactive); with Malme-3M, > 100 µM (inactive). Besides, the GI50 in the assay on NCI-H460, with SF-295, with HOP-62, in the assay on MOLT-4, in the assay on CAKI-1 and with OVCAR-4 was > 100 µM (inactive) throughout. Further, the GI50 in the assay with TK-10, in the assay with BT-549, in the assay on A549, in the assay with SF-539, with SNB-75 and in the assay with OVCAR-3 was > 100 µM (inactive) throughout. In addition, the GI50 with RPMI-8226 and in the assay with EKVX was > 100 µM (inactive) each time.

Turning to `CC1=[N+](C)CCN1C`, the GI50 was over 100 µM in the assay with HCT-15; > 100 µM (inactive) in the assay with CCRF-CEM; > 100 µM (inactive) in the assay on HCT-116; > 100 µM (inactive) in the assay with NCI/ADR-RES; > 100 µM (inactive) with RXF 393; > 100 µM (inactive) in the assay on Malme-3M. For the same molecule, the GI50 in the assay on NCI-H460, with SF-295, in the assay on HOP-62, in the assay with MOLT-4, in the assay on CAKI-1 and in the assay with OVCAR-4 was > 100 µM (inactive) each time. Also, the GI50 with TK-10, in the assay on BT-549, in the assay with A549, with SF-539, in the assay with SNB-75 and in the assay on OVCAR-3 was > 100 µM (inactive) in each case. Besides, the GI50 in the assay on RPMI-8226 and in the assay with EKVX was > 100 µM (inactive) throughout.

With `CC(C)NC(=O)OCc1c(COC(=O)NC(C)C)n(C)c2c1ccc1ccccc12`, the GI50 with HCT-15 is 1.54 µM; in the assay on CCRF-CEM, 0.112 µM (active); with HCT-116, 1.45 µM (inactive); in the assay with NCI/ADR-RES, 2.29 µM (inactive); in the assay with RXF 393, 1.25 µM (inactive); with Malme-3M it was 0.877 µM (active). Also, the GI50 with NCI-H460 was 2.53 µM (inactive); with SF-295 it was 4.56 µM (inactive); with HOP-62, 4.75 µM (inactive); in the assay on MOLT-4 it was 1.15 µM (inactive); with CAKI-1 it was 0.542 µM (active); in the assay with OVCAR-4, 2.75 µM (inactive). Besides, the GI50 was 1.63 µM (inactive) in the assay with TK-10; 0.398 µM (active) in the assay on BT-549; 9.98 µM (inactive) in the assay on A549; 1.68 µM (inactive) in the assay on SF-539; 1.83 µM (inactive) with SNB-75; 2.97 µM (inactive) with OVCAR-3. For the same molecule, the figures for the GI50 in the assay with RPMI-8226 and in the assay with EKVX were 1.19 µM (inactive) and 2.43 µM (inactive), respectively.

For the molecule `O=c1nc2n3c4c(cccc4nc-2c(=O)[nH]1)CCC3`, the GI50 in the assay on HCT-15 is over 100 µM; in the assay with CCRF-CEM it was > 100 µM (inactive); in the assay on HCT-116, 47.5 µM (inactive); with NCI/ADR-RES, > 100 µM (inactive); with RXF 393, > 100 µM (inactive); with Malme-3M, 21.6 µM (inactive). Further, the GI50 is > 100 µM (inactive) in the assay with NCI-H460; > 100 µM (inactive) with SF-295; > 100 µM (inactive) in the assay with HOP-62; > 100 µM (inactive) with MOLT-4; > 100 µM (inactive) with CAKI-1; 86.7 µM (inactive) in the assay with OVCAR-4. Besides, the GI50 with TK-10 is > 100 µM (inactive); in the assay on BT-549 it was > 100 µM (inactive); in the assay with A549, > 100 µM (inactive); in the assay with SF-539, > 100 µM (inactive); in the assay on SNB-75, > 100 µM (inactive); with OVCAR-3, 14 µM (inactive). The GI50 in the assay on RPMI-8226 and in the assay with EKVX was > 100 µM (inactive) in each case.

As to `COc1ccc2c(c1[N+](=O)[O-])CC[C@@H]1[C@@H]2CC[C@]2(C)C(=O)CC[C@@H]12`, the GI50 in the assay with HCT-15 was over 25 µM; in the assay with CCRF-CEM, 9.06 µM (inactive); in the assay on HCT-116, 20.3 µM (inactive); in the assay with NCI/ADR-RES, > 25 µM (inactive); in the assay with RXF 393 it was > 25 µM (inactive); in the assay with Malme-3M, 17.2 µM (inactive). The GI50 in the assay on NCI-H460 is 24.9 µM (inactive); in the assay on SF-295 it was > 25 µM (inactive); in the assay on HOP-62 it was > 6.71 µM (inactive); with MOLT-4, > 25 µM (inactive); in the assay with CAKI-1, > 25 µM (inactive); in the assay with OVCAR-4 it was 15.5 µM (inactive). Also, the GI50 with TK-10, in the assay with BT-549, in the assay with A549, in the assay with SF-539, in the assay with SNB-75 and with OVCAR-3 was > 25 µM (inactive) each time. Moreover, the GI50 in the assay with RPMI-8226 and with EKVX was > 25 µM (inactive) in each case.

Source of the values: ChEMBL document CHEMBL1201862, “PubChem BioAssay data set” (2004).
